Results published in PubChem BioAssay AID743164 (Broad Institute, 2013).
The source made the active and inactive calls. How the calls were made is not given here.

Key:
[1] = test system: Mycobacterium tuberculosis, starved, CFU imaging; assay: IC90 against starved M. tuberculosis, dose response, CFU by imaging, dry powder, 7108-04 (AID 743164)
[2] = as above; conditions: Mycobacterium tuberculosis, starved, CFU imaging

| SMILES | IC90 [1] [µM] | outcome [2] |
| --- | --- | --- |
| Cn1c(NC(=O)c2ccccc2)nc2ccccc21 | < 8 |  |
| CCOC(=O)NC(=O)c1ccsc1NC(=O)c1nc2ccccc2s1 |  | inactive |
